Data from US11466024B2, “Bicylic compound acting as an inhibitor” (CHIA TAI TIANQING PHARMACEUTICAL GROUP CO., LTD., priority 2017, dated 2022).

Target: hERG potassium channel (Homo sapiens, UniProt Q12809)
Assay: in vitro
Conditions: human
Experimental: CHO-hERG cells (from Shanghai Institute of Materia Medica, Chinese Academy of Sciences) were cultured in a 175 cm^2 culture flask. When the cell density reached 60% to 80%, the culture medium was removed, the cells were washed once with 7 mL of PBS, and then 3 mL of Detachin was added for cell detachment. After complete cell detachment, 7 mL of culture medium were added for neutralization, the mixture was then centrifuged, the supernatant was aspirated, and another 5 mL of culture medium was added for re-suspension, so as to ensure that the cell density was 2×10^6/mL to 5×10^6/mL.
The single-cell giga-seal and the formation of whole-cell mode were both completed automatically by a Q patch instrument. After a whole-cell recording mode was achieved, the cells were clamped at −80 mV, exposed to a front voltage of −50 mV for 50 ms prior to a depolarizing stimulus (5 s, +40 mV), and then repolarized to −50 mV for 5 s, followed by a recovery to −80 mV. This voltage stimulation was applied every 15 s and recorded for 2 minutes, and the extracellular fluid was then administered, followed by a record lasting for 5 minutes. Thereafter, the administration process was started. Starting from the lowest test concentration, the compounds were administered at each test concentration and the process lasted for 2.5 minutes. […] At least 3 cells (n≥3) were tested at each concentration.
20 mM stock solution of the compound was diluted with the extracellular fluid, and 5 μL of the 20 mM stock solution of the compound was taken, added to 2495 μL of the extracellular fluid, and diluted by 500 times to 40 μM. Thereafter, the resulting mixture was serially and successively diluted by 3 times in an extracellular fluid containing 0.2% DMSO, so as to obtain a final concentration to be tested.
The experimental data was analyzed by XLFit software.

Chain of hERG potassium channel (Q12809 whole entry): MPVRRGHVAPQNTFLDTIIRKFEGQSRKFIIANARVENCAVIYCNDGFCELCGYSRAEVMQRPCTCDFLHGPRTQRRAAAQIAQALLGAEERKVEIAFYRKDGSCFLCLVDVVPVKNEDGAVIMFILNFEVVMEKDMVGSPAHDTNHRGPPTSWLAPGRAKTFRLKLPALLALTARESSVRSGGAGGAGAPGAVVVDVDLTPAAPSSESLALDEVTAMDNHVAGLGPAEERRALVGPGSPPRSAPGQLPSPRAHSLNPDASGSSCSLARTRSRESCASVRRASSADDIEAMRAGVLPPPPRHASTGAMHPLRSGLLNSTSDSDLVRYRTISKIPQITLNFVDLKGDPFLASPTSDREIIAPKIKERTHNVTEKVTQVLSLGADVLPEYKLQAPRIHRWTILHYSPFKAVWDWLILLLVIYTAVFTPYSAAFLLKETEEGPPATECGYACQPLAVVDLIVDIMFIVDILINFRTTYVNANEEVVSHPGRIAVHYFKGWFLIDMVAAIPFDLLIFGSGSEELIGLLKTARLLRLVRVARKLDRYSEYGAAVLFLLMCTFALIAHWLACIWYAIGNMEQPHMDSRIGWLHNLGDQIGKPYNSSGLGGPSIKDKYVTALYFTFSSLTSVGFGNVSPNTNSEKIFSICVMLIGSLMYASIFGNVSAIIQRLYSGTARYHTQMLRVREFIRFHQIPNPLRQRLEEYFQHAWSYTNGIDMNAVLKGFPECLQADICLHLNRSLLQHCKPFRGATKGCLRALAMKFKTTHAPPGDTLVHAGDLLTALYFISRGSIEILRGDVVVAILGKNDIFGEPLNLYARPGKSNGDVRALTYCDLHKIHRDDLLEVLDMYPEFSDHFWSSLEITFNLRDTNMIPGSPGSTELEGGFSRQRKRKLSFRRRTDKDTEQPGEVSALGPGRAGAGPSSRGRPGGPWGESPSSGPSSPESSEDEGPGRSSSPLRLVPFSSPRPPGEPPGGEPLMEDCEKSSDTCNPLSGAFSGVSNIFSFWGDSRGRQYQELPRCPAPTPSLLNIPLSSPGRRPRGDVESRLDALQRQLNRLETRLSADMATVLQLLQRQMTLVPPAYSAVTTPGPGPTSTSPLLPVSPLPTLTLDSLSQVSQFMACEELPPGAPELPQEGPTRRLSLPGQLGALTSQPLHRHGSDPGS

Compound `COc1cc(N)c(Cl)cc1C(=O)NC1CCN(CCCOc2ccc(F)cc2)CC1OC` (stereo not shown) [Cisapride, reference compound] has an inhibition at 2.5 min, 40 μM of 89.6%.
